# Results taken from patent publication US11857536B2, “Glucokinase activator for treating diabetes with renal impairment” (HUA Medicine (Shanghai) Ltd., priority 2020, dated 2024).
# Read-outs that look alike come from different tables or passages of the source.
# Assay: Phase I open-label, parallel-group, single oral dose pharmacokinetic study of dorzagliatin in ESRD and healthy subjects
# Assay type: in vivo, human
# Details: single 25 mg oral dose; for AUC(0-inf) / AUC(0-t) / Cmax: human, po, 25 mg; for Cmax: read-out: Cmax, LS mean
# Excerpt: This phase I study was to access the pharmacokinetics and safety of a single dose of dorzagliatin in renally impaired and heathy subjects. The study was divided into two phases: Phase 1 having two groups (P1 and H) and Phase 2 having three groups (P2, P3, and P4). Phase 2 would start after the completion of Phase 1 and determining an increase of ≥100% in the average AUC (AUClast or AUCinf) of the ESRD subjects than that of the healthy subjects in Phase 1. The ESRD subjects of Group P1 were matched closely with the healthy subjects as to their sexes, ages (±5 yrs), and BMIs (±15%).
# In Phase 1, eligible subjects were admitted to a clinical research center (CRC) on Day −2 or −1. On Day −1, the subjects had no additional food after a standard dinner for at least 10 h. In the morning of Day 1, the subjects received dorzagliatin (25 mg) orally with empty stomach. […] Blood samples were collected at the following time points: within 60 min pre-dose; and at 0.25, 0.5, 1, 1.5, 2, 2.5, 3, 4, 6, 8, 12, 24, 36, 48, and 72 h post-dose. Urine samples for the pharmacokinetic (PK) analysis were collected at the following time points: within 60 min pre-dose; and at 0˜4, 4˜8, 8˜12, 12˜24, 24˜36, 36˜48, and 48˜72 h post-dose. The samples were analyzed using LC-MS/MS. The plasma concentration-time data for dorzagliatin were analyzed using a non-compartmental model to obtain PK parameters, including Cmax, AUClast, AUCinf, Cmax,u, AUClast,u, and AUCinf,u. An ANOVA analysis was performed on the data between H and P1 groups.
compound,measurement,setting,value
"CC(C)C[C@@H](C(=O)Nc1ccn(C[C@@H](O)CO)n1)N1CC(Oc2ccccc2Cl)=CC1=O [dorzagliatin, (S)-2-(4-(2-chlorophenoxy)-2-oxo-2,5-dihydro-1H-pyrrol-1-yl)-N-(1-((R)-2,3-dihydroxypropyl)-1H-pyrazol-3-yl)-4-methylpentanamide]","Cmax, u, LS mean","Group H (healthy), fasted",29.5 ng/mL
same,"AUClast, LS mean","Group H (healthy), fasted, plasma",1857 ng·h/mL
same,"Cmax, u, LS mean","Group P1 (ESRD), fasted",27.5 ng/mL
same,AUC(0-inf),"plasma, Group H (healthy), fasted, plasma, read-out: AUCinf, LS mean",1890 ng·h/mL
same,AUC(0-inf),"plasma, Group H (healthy), fasted, read-out: AUCinf, u, LS mean",126 ng·h/mL
same,AUC(0-t),"plasma, Group H (healthy), fasted, read-out: AUClast, u, LS mean",124 ng·h/mL
same,Cmax,"plasma, Group H (healthy, eGFR ≥90), fasted, plasma",442 ng/mL
same,AUC(0-inf),"plasma, Group P1 (ESRD), fasted, plasma, read-out: AUCinf, LS mean",2070 ng·h/mL
same,AUC(0-t),"plasma, Group P1 (ESRD), fasted, plasma, read-out: AUClast, LS mean",2060 ng·h/mL
same,AUC(0-inf),"plasma, Group P1 (ESRD), fasted, read-out: AUCinf, u, LS mean",163 ng·h/mL
same,AUC(0-t),"plasma, Group P1 (ESRD), fasted, read-out: AUClast, u, LS mean",162 ng·h/mL
same,Cmax,"plasma, Group P1 (ESRD, eGFR <15, no dialysis), fasted, plasma",356 ng/mL
same,"Cmax, u GMR (P1/H)",ratio ESRD/healthy,0.93
same,"AUCinf in ESRD subjects (Group P1) compared to healthy subjects (Group H), in words",,substantially the same
same,"Cmax in ESRD subjects (Group P1) compared to healthy subjects (Group H), in words",,slightly decreased
same,"Difference in AUC between Groups H and P1, in words","ANOVA, preset criterion AUC increase >100% not met",no significant difference
